Target: T1, human CB2R (Homo sapiens, UniProt P34972)
T1 construct: host or cells: CHO cells
Assay: CB2R mediated modulation of cAMP synthesis
Assay type: cell-based
Protocol: B. CB2R Mediated Modulation of cAMP Synthesis:
Compounds of the invention were evaluated for their CB2 agonist or inverse agonistic activity in accordance with the following experimental method.
CHO cells expressing human CB2R (Euroscreen) were plated at a density of 5000 cells per well in 384 well plates and incubated overnight at 37° C. After removing the media, the cells were treated with test compounds diluted in stimulation buffer containing 1 mM IBMX, 0.25% BSA and 10 uM Forskolin. The assay was incubated for 30 minutes at 37° C. Cells were lysed and the cAMP concentration was measured using DiscoverX-XS cAMP kit, following the manufacturer's protocol. In this setting, agonists will decrease forskolin induced production of cAMP while inverse agonists will further increase forskolin induced production of cAMP. EC50 of agonists were calculated as follows. The maximal amount of cAMP produced by forskolin compared to the level of cAMP inhibited by 1 uM CP55940 is defined as 100%. The EC50 value of each test compound was determined as the concentration at which 50% of the forskolin-stimulated cAMP synthesis was inhibited. Data was analyzed using a four-parameter logistic model. (Model 205 of XLfit 4.0).

T1 sequence (P34972 whole entry): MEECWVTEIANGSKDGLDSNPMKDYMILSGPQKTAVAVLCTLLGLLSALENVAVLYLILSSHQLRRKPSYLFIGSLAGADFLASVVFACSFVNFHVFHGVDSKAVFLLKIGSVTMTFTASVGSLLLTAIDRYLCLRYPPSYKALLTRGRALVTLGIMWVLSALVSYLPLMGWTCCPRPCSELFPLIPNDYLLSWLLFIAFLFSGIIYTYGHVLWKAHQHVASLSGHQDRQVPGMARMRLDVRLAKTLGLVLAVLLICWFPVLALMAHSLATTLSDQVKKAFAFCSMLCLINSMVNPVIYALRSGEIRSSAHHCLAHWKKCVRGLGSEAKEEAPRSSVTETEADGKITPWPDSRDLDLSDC

| SMILES | EC50 [nM] |
| --- | --- |
| CC(C)(OCC1CCOCC1)C(=O)Nc1nc(-c2ccccc2)n[nH]1 [Example 6, 2-Methyl-N-(5-phenyl-2H-1,2,4-triazol-3-yl)-2-(tetrahydro-pyran-4-ylmethoxy)-propionamide] | 51 |
| CC(C)(OC1CCOCC1)C(=O)Nc1nc(-c2ccccc2)n[nH]1 [Example 7, 2-Methyl-N-(5-phenyl-2H-1,2,4-triazol-3-yl)-2-(tetrahydro-pyran-4-yloxy)-propionamide] | 235 |
| CC(C)(Nc1ccc(C(F)(F)F)cn1)C(=O)Nc1cc(C(C)(C)C)no1 [Example 46, N-(3-tert-Butyl-isoxazol-5-yl)-2-methyl-2-(5-trifluoromethyl-pyridin-2-ylamino)-propionamide] | 0.78 |
| CC1CCCN1C(C)(C)C(=O)Nc1cc(C(C)(C)C)on1 (stereo not drawn) [Example 20, N-(5-tert-Butyl-isoxazol-3-yl)-2-(2-methyl-pyrrolidin-1-yl)-isobutyramide] | 24 |
| CN(C(C)(C)C(=O)Nc1cc(C(C)(C)C)on1)S(=O)(=O)c1ccc(F)cc1 [Example 49, N-(5-tert-Butyl-isoxazol-3-yl)-2-[(4-fluoro-benzenesulfonyl)-methyl-amino]-2-methyl-propionamide] | 0.13 |
| CC(C)(Nc1ccc(C(F)(F)F)cc1)C(=O)Nc1cc(C(C)(C)C)no1 [Example 43, N-(3-tert-Butyl-isoxazol-5-yl)-2-methyl-2-(4-trifluoromethyl-phenylamino)-propionamide] | 1.1 |
| CC(C)(NCC1CCOCC1)C(=O)Nc1nc(-c2ccccc2)n[nH]1 [Example 41, 2-Methyl-N-(5-phenyl-2H-1,2,4-triazol-3-yl)-2-[(tetrahydro-pyran-4-ylmethyl)-amino]-propionamide] | 98 |
| CC(C)(C)c1cc(NC(=O)C(C)(C)N2CCC3(CCCCC3)C2)on1 [Example 36, 2-(2-Aza-spiro[4.5]dec-2-yl)-N-(3-tert-butyl-isoxazol-5-yl)-isobutyramide] | 0.45 |
| CCCCNC(C)(C)C(=O)Nc1cc(C(C)(C)C)on1 [Example 17, 2-Butylamino-N-(5-tert-butyl-isoxazol-3-yl)-2-methyl-propionamide] | 96 |

Source: patent publication US8957063B2, “Amine and ether compounds which modulate the CB2 receptor” (priority 2008, dated 2015)
